Reference: the OligoGym collection
Several values for one entry are separate records, joined by “and”; a condition that tells them apart may be missing. Identical values can stand only once. HELM strings list units from the 5' end as sugar, base in round brackets, then linkage (d deoxyribose, r ribose, m 2'-O-methyl, p phosphodiester). Methylation of C is not given here. [moe] = 2'-O-(2-methoxyethyl) (MOE); [cEt] = constrained ethyl (cEt); [sp] = phosphorothioate linkage

Target: HBV
Conditions: ASO

RNA1{[moe](A)[sp].[moe](G)[sp].[moe](A)[sp].d(G)[sp].d(G)[sp].d(T)[sp].d(G)[sp].d(A)[sp].d(A)[sp].d(G)[sp].d(C)[sp].d(G)[sp].[moe](A)[sp].[moe](A)[sp].[moe](G)[sp].[moe](T)[sp].[moe](G)}$$$$V2.0
target mRNA inhibition (HepG2, 0.07 µM): 70% and 52%

RNA1{[moe](A)[sp].[moe](G)[sp].[moe](C)[sp].[moe](G)[sp].[moe](A)[sp].d(A)[sp].d(G)[sp].d(T)[sp].d(G)[sp].d(C)[sp].d(A)[sp].d(C)[sp].d(A)[sp].d(C)[sp].[moe](G)[sp].[moe](G)}$$$$V2.0
target mRNA inhibition (HepG2, 0.07 µM): 79% and 74%

RNA1{[moe](A)[sp].[moe](G)[sp].[moe](C)[sp].d(G)[sp].d(A)[sp].d(A)[sp].d(G)[sp].d(T)[sp].d(G)[sp].d(C)[sp].d(A)[sp].d(C)[sp].d(A)[sp].[cEt](C)[sp].[cEt](G)[sp].[cEt](G)}$$$$V2.0
target mRNA inhibition (HepG2, 0.0092593 µM): 17% | target mRNA inhibition (HepG2, 0.0277778 µM): 49% | target mRNA inhibition (HepG2, 0.07 µM): 82% and 86% | target mRNA inhibition (HepG2, 0.0833333 µM): 79% | target mRNA inhibition (HepG2, 0.25 µM): 90%

RNA1{[moe](A)[sp].[moe](G)[sp].[moe](G)[sp].[moe](C)[sp].d(A)[sp].d(T)[sp].d(A)[sp].d(G)[sp].d(C)[sp].d(A)[sp].d(G)[sp].d(C)[sp].d(A)[sp].[moe](G)[sp].[moe](G)[sp].[moe](A)}$$$$V2.0
target mRNA inhibition (HepG2, 0.07 µM): 52% and 36%

RNA1{[moe](A)[sp].[moe](G)[sp].[moe](G)[sp].[moe](T)[sp].d(G)[sp].d(A)[sp].d(A)[sp].d(G)[sp].d(C)[sp].d(G)[sp].d(A)[sp].d(A)[sp].d(G)[sp].[moe](T)[sp].[moe](G)[sp].[moe](C)}$$$$V2.0
target mRNA inhibition (HepG2, 0.07 µM): 3% and 19%

RNA1{[moe](A)[sp].[moe](G)[sp].[moe](T)[sp].[moe](T)[sp].[moe](C)[sp].d(C)[sp].d(G)[sp].d(C)[sp].d(A)[sp].d(G)[sp].d(T)[sp].d(A)[sp].d(T)[sp].d(G)[sp].[moe](G)[sp].[moe](A)[sp].[moe](T)}$$$$V2.0
target mRNA inhibition (HepG2, 0.07 µM): 56% and 49%

RNA1{[moe](A)[sp].[moe](G)[sp].[moe](T)[sp].d(C)[sp].d(C)[sp].d(A)[sp].d(C)[sp].d(C)[sp].d(A)[sp].d(C)[sp].d(G)[sp].d(A)[sp].d(G)[sp].[cEt](T)[sp].[cEt](C)[sp].[cEt](T)}$$$$V2.0
target mRNA inhibition (HepG2, 0.07 µM): 35% and 29%

RNA1{[moe](A)[sp].[moe](G)[sp].d(G)[sp].d(A)[sp].d(G)[sp].d(T)[sp].d(T)[sp].d(C)[sp].d(C)[sp].d(G)[sp].d(C)[sp].[moe](A)[sp].[moe](G)[sp].[moe](T)[sp].[moe](A)[sp].[moe](T)}$$$$V2.0
target mRNA inhibition (HepG2, 0.07 µM): 50% and 37%

RNA1{[moe](A)[sp].[moe](G)[sp].d(G)[sp].d(C)[sp].d(A)[sp].d(T)[sp].d(A)[sp].d(G)[sp].d(C)[sp].d(A)[sp].d(G)[sp].[moe](C)[sp].[moe](A)[sp].[moe](G)[sp].[moe](G)[sp].[moe](A)[sp].[moe](T)}$$$$V2.0
target mRNA inhibition (HepG2, 0.07 µM): 75% and 68%

RNA1{[moe](A)[sp].[moe](G)[sp].d(G)[sp].d(T)[sp].d(G)[sp].d(A)[sp].d(A)[sp].d(G)[sp].d(C)[sp].d(G)[sp].d(A)[sp].[moe](A)[sp].[moe](G)[sp].[moe](T)[sp].[moe](G)[sp].[moe](C)}$$$$V2.0
target mRNA inhibition (HepG2, 0.07 µM): 70% and 60%

RNA1{[moe](A)[sp].[moe](G)[sp].d(T)[sp].d(T)[sp].d(C)[sp].d(C)[sp].d(G)[sp].d(C)[sp].d(A)[sp].d(G)[sp].d(T)[sp].[moe](A)[sp].[moe](T)[sp].[moe](G)[sp].[moe](G)[sp].[moe](A)}$$$$V2.0
target mRNA inhibition (HepG2, 0.07 µM): 63% and 64%

RNA1{[moe](A)[sp].[moe](T)[sp].[moe](G)[sp].[moe](A)[sp].d(G)[sp].d(G)[sp].d(C)[sp].d(A)[sp].d(T)[sp].d(A)[sp].d(G)[sp].d(C)[sp].d(A)[sp].[moe](G)[sp].[moe](C)[sp].[moe](A)}$$$$V2.0
target mRNA inhibition (HepG2, 0.07 µM): 54% and 49%

RNA1{[moe](A)[sp].[moe](T)[sp].[moe](T)[sp].[moe](T)[sp].[moe](A)[sp].[moe](T)[sp].d(G)[sp].d(C)[sp].d(C)[sp].d(T)[sp].d(A)[sp].d(C)[sp].d(A)[sp].d(G)[sp].d(C)[sp].[moe](C)[sp].[moe](T)}$$$$V2.0
target mRNA inhibition (HepG2, 0.0092593 µM): 0% | target mRNA inhibition (HepG2, 0.0277778 µM): 12% | target mRNA inhibition (HepG2, 0.07 µM): 74% and 57% | target mRNA inhibition (HepG2, 0.0833333 µM): 24% | target mRNA inhibition (HepG2, 0.25 µM): 46%

RNA1{[moe](A)[sp].[moe](T)[sp].[moe](T)[sp].d(T)[sp].d(A)[sp].d(T)[sp].d(G)[sp].d(C)[sp].d(C)[sp].d(T)[sp].d(A)[sp].d(C)[sp].d(A)[sp].[cEt](G)[sp].[cEt](C)[sp].[cEt](C)}$$$$V2.0
target mRNA inhibition (HepG2, 0.07 µM): 47% and 65%

RNA1{[moe](C)[sp].[cEt](A)[sp].[cEt](A)[sp].d(T)[sp].d(T)[sp].d(T)[sp].d(A)[sp].d(T)[sp].d(G)[sp].d(C)[sp].d(C)[sp].d(T)[sp].d(A)[sp].[cEt](C)[sp].[cEt](A)[sp].[moe](G)}$$$$V2.0
target mRNA inhibition (HepG2, 0.07 µM): 49% and 41%

RNA1{[moe](C)[sp].[cEt](A)[sp].d(A)[sp].d(T)[sp].d(T)[sp].d(T)[sp].d(A)[sp].d(T)[sp].d(G)[sp].d(C)[sp].d(C)[sp].d(T)[sp].[cEt](A)[sp].[moe](C)[sp].[cEt](A)[sp].[moe](G)}$$$$V2.0
target mRNA inhibition (HepG2, 0.07 µM): 35% and 34%

RNA1{[moe](C)[sp].[cEt](T)[sp].d(G)[sp].d(G)[sp].d(A)[sp].d(G)[sp].d(C)[sp].d(C)[sp].d(A)[sp].d(C)[sp].d(C)[sp].d(A)[sp].[cEt](G)[sp].[moe](C)[sp].[cEt](A)[sp].[moe](G)}$$$$V2.0
target mRNA inhibition (HepG2, 0.07 µM): 56%

RNA1{[moe](C)[sp].[moe](A)[sp].[moe](A)[sp].[moe](T)[sp].[moe](T)[sp].[moe](T)[sp].d(A)[sp].d(T)[sp].d(G)[sp].d(C)[sp].d(C)[sp].d(T)[sp].d(A)[sp].d(C)[sp].d(A)[sp].[moe](G)[sp].[moe](C)}$$$$V2.0
target mRNA inhibition (HepG2, 0.07 µM): 26% and 22%

RNA1{[moe](C)[sp].[moe](A)[sp].[moe](A)[sp].[moe](T)[sp].[moe](T)[sp].d(T)[sp].d(A)[sp].d(T)[sp].d(G)[sp].d(C)[sp].d(C)[sp].d(T)[sp].d(A)[sp].d(C)[sp].[moe](A)[sp].[moe](G)}$$$$V2.0
target mRNA inhibition (HepG2, 0.07 µM): 24% and 11%

RNA1{[moe](C)[sp].[moe](A)[sp].[moe](A)[sp].[moe](T)[sp].d(T)[sp].d(T)[sp].d(A)[sp].d(T)[sp].d(G)[sp].d(C)[sp].d(C)[sp].d(T)[sp].d(A)[sp].[moe](C)[sp].[moe](A)[sp].[moe](G)}$$$$V2.0
target mRNA inhibition (HepG2, 0.07 µM): 19% and 13%

RNA1{[moe](C)[sp].[moe](A)[sp].[moe](A)[sp].d(T)[sp].d(T)[sp].d(T)[sp].d(A)[sp].d(T)[sp].d(G)[sp].d(C)[sp].d(C)[sp].d(T)[sp].[moe](A)[sp].[moe](C)[sp].[moe](A)[sp].[moe](G)[sp].[moe](C)}$$$$V2.0
target mRNA inhibition (HepG2, 0.07 µM): 33% and 41%

RNA1{[moe](C)[sp].[moe](A)[sp].[moe](A)[sp].d(T)[sp].d(T)[sp].d(T)[sp].d(A)[sp].d(T)[sp].d(G)[sp].d(C)[sp].d(C)[sp].d(T)[sp].[moe](A)[sp].[moe](C)[sp].[moe](A)[sp].[moe](G)}$$$$V2.0
target mRNA inhibition (HepG2, 0.07 µM): 17% and 22%

RNA1{[moe](C)[sp].[moe](A)[sp].[moe](C)[sp].[moe](T)[sp].[moe](A)[sp].d(G)[sp].d(T)[sp].d(A)[sp].d(A)[sp].d(A)[sp].d(C)[sp].d(T)[sp].d(G)[sp].d(A)[sp].[moe](G)[sp].[moe](C)[sp].[moe](C)}$$$$V2.0
target mRNA inhibition (HepG2, 0.07 µM): 71% and 62%

RNA1{[moe](C)[sp].[moe](A)[sp].[moe](C)[sp].[moe](T)[sp].d(A)[sp].d(G)[sp].d(T)[sp].d(A)[sp].d(A)[sp].d(A)[sp].d(C)[sp].d(T)[sp].d(G)[sp].[moe](A)[sp].[moe](G)[sp].[moe](C)[sp].[moe](C)}$$$$V2.0
target mRNA inhibition (HepG2, 0.07 µM): 61% and 54%

RNA1{[moe](C)[sp].[moe](A)[sp].d(A)[sp].d(T)[sp].d(T)[sp].d(T)[sp].d(A)[sp].d(T)[sp].d(G)[sp].d(C)[sp].d(C)[sp].[moe](T)[sp].[moe](A)[sp].[moe](C)[sp].[moe](A)[sp].[moe](G)[sp].[moe](C)}$$$$V2.0
target mRNA inhibition (HepG2, 0.07 µM): 53% and 46%

RNA1{[moe](C)[sp].[moe](A)[sp].d(G)[sp].d(A)[sp].d(G)[sp].d(G)[sp].d(T)[sp].d(G)[sp].d(A)[sp].d(A)[sp].d(G)[sp].[moe](C)[sp].[moe](G)[sp].[moe](A)[sp].[moe](A)[sp].[moe](G)[sp].[moe](T)}$$$$V2.0
target mRNA inhibition (HepG2, 0.07 µM): 61%

RNA1{[moe](C)[sp].[moe](C)[sp].[moe](A)[sp].[moe](A)[sp].[moe](T)[sp].d(T)[sp].d(T)[sp].d(A)[sp].d(T)[sp].d(G)[sp].d(C)[sp].d(C)[sp].d(T)[sp].d(A)[sp].[moe](C)[sp].[moe](A)}$$$$V2.0
target mRNA inhibition (HepG2, 0.07 µM): 15% and 6%

RNA1{[moe](C)[sp].[moe](C)[sp].[moe](G)[sp].[moe](C)[sp].[moe](A)[sp].[moe](G)[sp].d(T)[sp].d(A)[sp].d(T)[sp].d(G)[sp].d(G)[sp].d(A)[sp].d(T)[sp].d(C)[sp].d(G)[sp].[moe](G)[sp].[moe](C)}$$$$V2.0
target mRNA inhibition (HepG2, 0.07 µM): 90% and 66%

RNA1{[moe](C)[sp].[moe](C)[sp].[moe](G)[sp].[moe](C)[sp].[moe](A)[sp].d(G)[sp].d(T)[sp].d(A)[sp].d(T)[sp].d(G)[sp].d(G)[sp].d(A)[sp].d(T)[sp].d(C)[sp].[moe](G)[sp].[moe](G)}$$$$V2.0
target mRNA inhibition (HepG2, 0.07 µM): 75% and 71%

RNA1{[moe](C)[sp].[moe](C)[sp].[moe](G)[sp].d(C)[sp].d(A)[sp].d(G)[sp].d(T)[sp].d(A)[sp].d(T)[sp].d(G)[sp].d(G)[sp].d(A)[sp].d(T)[sp].[cEt](C)[sp].[cEt](G)[sp].[cEt](G)}$$$$V2.0
target mRNA inhibition (HepG2, 0.07 µM): 72% and 79%

RNA1{[moe](C)[sp].[moe](C)[sp].d(A)[sp].d(C)[sp].d(T)[sp].d(G)[sp].d(A)[sp].d(A)[sp].d(C)[sp].d(A)[sp].d(A)[sp].[moe](A)[sp].[moe](T)[sp].[moe](G)[sp].[moe](G)[sp].[moe](C)}$$$$V2.0
target mRNA inhibition (HepG2, 0.0092593 µM): 8% | target mRNA inhibition (HepG2, 0.0277778 µM): 27% | target mRNA inhibition (HepG2, 0.07 µM): 74% and 70% | target mRNA inhibition (HepG2, 0.0833333 µM): 54% | target mRNA inhibition (HepG2, 0.25 µM): 76%
